The record followed here is patent US20240382601A1, “EMULSION FORMULATION HAVING HIGH FORMULATION STABILITY AND MANUFACTURING METHOD THEREOF” (AMOREPACIFIC CORPORATION, priority 2023, published 2024).

Data set [1] is described as follows: logP values of complex ingredients.
From the text: (§1) Among the above ingredients, the logP values of dipropylene glycol, diethoxyethyl 5 succinate.
Data set [2] is described as follows: HLB values of surfactants. The format is physicochemical.
From the text: as §1

As for `CCOCCOC(=O)CCC(=O)OCCOCC` [Diethoxyethyl succinate], in data set [1], the logP (usually a log measure of how a compound divides between an organic and an aqueous phase) stood at 0.25. Still for that read-out and setting: with `CCCCCCCCCCCCOCCOCCO` [Diethylene glycol lauryl ether] the figure was 4.

In the case of Polysorbate 20, the HLB in data set [2] amounted to 17. Same read-out and setting: under Polysorbate 60 stands 15.
